# Article PMC10669340, “Bioactive Compounds from an Endophytic Pezicula sp. Showing Antagonistic Effects against the Ash Dieback Pathogen” (Biomolecules, 2023)
# Where two headings read alike, the source gives them in different places. Marks after values point to notes of the source that are not given here.
# Key:
# [1] = test system: Candida albicans DSM 11225 biofilm; assay: Biofilm assay, inhibition of biofilm formation; assay type: cell-based; design: unit not given here; settings: (/) no activity
# Experimental: The stock of fungal pathogen Candida albicans DSM 11225 from −20 °C was cultured in 25 mL YPD (Yeast extract Peptone Dextrose; dextrose 20 g/L, peptone 20 g/L, yeast extract 10 g/L) medium in a 250 mL flask at 30 °C with shaking 100 rpm for 18 h. Turbidity of the broth was measured and diluted to match the turbidity of a 0.05 McFarland standard in RPMI 1640 medium (Gibco, New York, NY, USA, Thermo Fisher Scientific). Afterwards, 150 μL of the fungal dispersion was added into each well of a 96-well microtiter plate (Falcon no. 351172, Thermo Fisher Scientific) and further incubated for 90 min. The supernatant was removed, and the plate was washed once by using PBS buffer. Compounds were serially diluted in 150 μL in fresh medium to concentrations of 250–2 μg/mL. Staining and analysis were conducted as previously described. Methanol (2.5%) and farnesol (250–2 μg/mL) were used as solvent and positive controls. Error bars indicate SD with duplicates in two biological repeats.
# [2] = test system: Acinetobacter baumannii DSM 30008; assay: Antimicrobial serial dilution assay (MIC); assay type: cell-based; settings: DSM30008, n.i.: no inhibition, read-out: Minimum inhibitory concentration (MIC)
# Experimental: (§1) The antimicrobial activity (minimum inhibitory concentration, MIC) of the compounds was determined against Acinetobacter baumannii DSM 30008, Bacillus subtilis DSM 10, Chromobacterium violaceum DSM 30191, Escherichia coli DSM 1116, Mycobacterium smegmatis ATCC 700084, Pseudomonas aeruginosa PA14, Staphylococcus aureus DSM 346, Candida albicans DSM1665, Mucor hiemalis DSM 2656, Pichia anomala DSM 6766, Rhodotorula glutinis DSM 10134 and Schizosaccharomyces pombe DSM 70572 in a serial dilution assay as previously described.
# [3] = MTT cytotoxicity assay; assay type: cell-based; settings: read-out: Cytotoxic activity (IC50)
# Experimental: The in vitro cytotoxicity assay was performed using the MTT (3-(4,5-dimethylthiayol-2-yl)-2,5-diphenyltetrazolium bromide) test in 96-well microtiter plates as previously described.
# [4] = test system: Mycobacterium smegmatis ATCC 700084; assay: Antimicrobial serial dilution assay (MIC); assay type: cell-based; settings: Mycobacterium smegmatis ATCC 700084; n.i.: no inhibition
# Experimental: as §1
# [5] = test system: Candida albicans DSM1665; assay: Antimicrobial serial dilution assay (MIC); assay type: cell-based; settings: n.i.: no inhibition
# Experimental: as §1
# [6] = test system: Mucor hiemalis DSM 2656; assay: Antimicrobial serial dilution assay (MIC); assay type: cell-based; settings: Mucor hiemalis DSM 2656; n.i.: no inhibition
# Experimental: as §1
# [7] = test system: Pichia anomala DSM 6766; assay: Antimicrobial serial dilution assay (MIC); assay type: cell-based; settings: Pichia anomala DSM 6766; n.i.: no inhibition
# Experimental: as §1
# [8] = test system: Rhodotorula glutinis DSM 10134; assay: Antimicrobial serial dilution assay (MIC); assay type: cell-based; settings: Rhodotorula glutinis DSM 10134; n.i.: no inhibition
# Experimental: as §1
# [9] = test system: Schizosaccharomyces pombe DSM 70572; assay: Antimicrobial serial dilution assay (MIC); assay type: cell-based; settings: Schizosaccharomyces pombe DSM 70572; n.i.: no inhibition
# Experimental: as §1
# [10] = test system: H. fraxineus (isolate RH02-T6-B4-2); assay: Agar disc diffusion assay; assay type: cell-based, Hymenoscyphus fraxineus; settings: 6 mm disc, 7 days, 21 °C
# Experimental: The antifungal activity of the isolated compounds against H. fraxineus was assessed by the disc diffusion method using 9 cm diameter petri dishes as previously described […] Three sterile filter paper discs per plate were gently placed on dried potato–dextrose agar. The fungicide nystatin was applied as the positive control (20 and 50 µg/paper disc) and methanol as the negative control (10 µL/paper disc). The test plates were incubated at 21 °C for 7 days, the inhibition diameters were measured, and the activity was evaluated compared to nystatin.
# Figure S44: Agar disc (6 mm diam.) diffusion assay of compound CJ-17,572 (1) against H. fraxineus RH02-T6-B4-2, grown in 9-cm petri dishes on agar-based PD
# medium with H. fraxineus, N - positive control nystatin, M - negative control methanol, CJ – 1.
# Table S1. Antifungal activity of the compounds 1-6. n.i.: no inhibition, n.t.: not tested.
# Compounds Amount ( µg/paper disc)
# Peziculastatin n.t. n.i. 8 mm
# Mycorrhizin A 19 mm 31 mm n.t.
# Cryptosporioptide A n.t. n.i. n.i.
# Cryptosporioptide B n.t. n.i. 8 mm
# Cryptosporioptide C n.t. n.i. n.i.
# Nystatin 21 mm 24 mm n.t.
# [11] = test system: Bacillus subtilis DSM 10; assay: Antimicrobial serial dilution assay (MIC); assay type: cell-based; settings: DSM10; Bacillus subtilis DSM 10; n.i.: no inhibition; read-out: Minimum inhibitory concentration (MIC)
# Experimental: as §1
# [12] = test system: Chromobacterium violaceum DSM 30191; assay: Antimicrobial serial dilution assay (MIC); assay type: cell-based; settings: DSM30191, n.i.: no inhibition, read-out: Minimum inhibitory concentration (MIC)
# Experimental: as §1
# [13] = test system: Escherichia coli DSM 1116; assay: Antimicrobial serial dilution assay (MIC); assay type: cell-based; settings: n.i.: no inhibition
# Experimental: as §1
# [14] = test system: Pseudomonas aeruginosa PA14; assay: Antimicrobial serial dilution assay (MIC); assay type: cell-based; settings: n.i.: no inhibition
# Experimental: as §1
# [15] = test system: Staphylococcus aureus DSM 346; assay: Antimicrobial serial dilution assay (MIC); assay type: cell-based; settings: Staphylococcus aureus DSM 346; n.i.: no inhibition
# Experimental: as §1
compound,measurement,setting,value
"CC(C)=CCC/C(C)=C/CC/C(C)=C/CO [Farnesol, farnesol, reference compound]","Antibiofilm activity, C. albicans",[1]; 15.6 µg/mL,55
same,"Antibiofilm activity, C. albicans",[1]; 31.3 µg/mL,66
same,"Antibiofilm activity, C. albicans",[1]; 62.5 µg/mL,71
same,"Antibiofilm activity, C. albicans",[1]; 250 µg/mL,81
"O=C(O)c1cn(C2CC2)c2cc(N3CCNCC3)c(F)cc2c1=O [ciprofloxacin, reference compound]",MIC,[2],0.26 µg/mL
"C/C(=C\c1csc(C)n1)[C@@H]1C[C@@H]2O[C@]2(C)CCC[C@H](C)[C@H](O)[C@@H](C)C(=O)C(C)(C)[C@@H](O)CC(=O)O1 [epothilone B, reference compound]",IC50,"[3]; human, A431",0.065 nM
same,IC50,"[3]; human, A549",0.053 nM
same,IC50,"[3]; human, KB3.1, n.c.: no cytotoxicity",0.045 nM
same,IC50,"[3]; human, MCF-7",0.083 nM
same,IC50,"[3]; human, PC-3",0.28 nM
same,IC50,"[3]; human, SKOV-3",0.18 nM
same,IC50,"[3]; mouse, L929, n.c.: no cytotoxicity",0.43 nM
"NC[C@H]1O[C@H](O[C@H]2[C@H](O)[C@@H](O[C@H]3O[C@H](CO)[C@@H](O)[C@H](N)[C@H]3O)[C@H](N)C[C@@H]2N)[C@H](O)[C@@H](O)[C@@H]1O [kanamycin, reference compound]",Minimum inhibitory concentration (MIC),[4],1.7 ^d µg/mL
"C[C@@H]1[C@H](O)[C@@H](C)/C=C/C=C/CC/C=C/C=C/C=C/C=C/C(O[C@H]2O[C@H](C)[C@@H](O)[C@H](N)[C@@H]2O)CC2O[C@](O)(CC(O)C(O)CCC(O)CC(O)CC(O)CC(=O)O[C@H]1C)CC(O)C2C(=O)O (stereo partly shown) [nystatin, reference compound]",Minimum inhibitory concentration (MIC),[5],16.6 ^e µg/mL
same,Minimum inhibitory concentration (MIC),[6],16.6 ^e µg/mL
same,Minimum inhibitory concentration (MIC),[7],16.6 ^e µg/mL
same,Minimum inhibitory concentration (MIC),[8],8.3 ^e µg/mL
same,Minimum inhibitory concentration (MIC),[9],16.6 ^e µg/mL
same,"Antifungal activity, inhibition diameter",[10]; 20 µg/paper disc,21 mm
same,"Antifungal activity, inhibition diameter","[10]; 50 µg/paper disc, n.i.: no inhibition",24 mm
"CN(C)[C@@H]1C(O)=C(C(N)=O)C(=O)[C@@]2(O)C(O)=C3C(=O)c4c(O)cccc4[C@@](C)(O)[C@H]3[C@H](O)[C@@H]12 [oxytetracycline, reference compound]",MIC,[11],16.6 µg/mL
same,MIC,[12],0.83 µg/mL
gentamycin [reference compound],Minimum inhibitory concentration (MIC),[13],0.83 ^b µg/mL
same,Minimum inhibitory concentration (MIC),[14],0.21 ^b µg/mL
same,Minimum inhibitory concentration (MIC),[15],0.21 ^b µg/mL
